Laboratory results published in article PMC10885983 (Antibiotics, 2024).
Converted amounts (≈) assume the structure as drawn. Like-named read-outs stand apart in the source and are kept apart here.

Columns and labels:
[1] = rat, in vivo, po, cited from earlier work
[2] = Pharmacokinetics of rhodomyrtone in rats after a single oral dose (HPLC-UV plasma analysis, non-compartment model); type: in vivo, Sprague Dawley rats; details: for AUC(0-t): read-out: AUC0–8; for Tmax / Vd/F: po; for k el: read-out: λz (converted)
Description: The HPLC method was used to quantify the concentration of rhodomyrtone in rat plasma after a single oral administration of 50 and 100 mg/kg. Blood samples were collected from tail veins at 0, 0.25, 0.5, 1, 2, 3, 4, 5, 6, 7 and 8 h. Rat plasma samples were prepared as described in Section 3.3. Rhodomyrtone was analyzed using a Bondapak C18 HPLC column at 25 °C. […] After several trials, the mobile phase was optimized to achieve good resolution and symmetric peak shapes for both rhodomyrtone and papaverine. […] An appropriate wavelength at 302 nm gave good sensitivity, with no interfering substance of other components. […] The curve of the rhodomyrtone concentration–time profiles was fitted in a non-compartment pharmacokinetic model due to the whole organism as a single compartment where the drug distributes homogeneously and instantaneously, resulting in a constant volume of distribution. The non-compartment model is multifaceted, and it is acceptable for bioequivalence studies.
An aliquot of each rat plasma sample (100 µL) or validation sample was pipetted into a 1.5 mL microcentrifuge tube, spiked with 25 µL papaverine working standard, then the rat plasma was deproteinized with 75 µL acetonitrile, mixed for 30 s and dropped off 5 min to precipitate the protein. The insoluble content was separated from plasma by centrifugation at 5000× g at 10 °C for 15 min, and we collected the supernatant. All samples were filtered through a 0.22 μm PTFE membrane filter. Subsequently, each sample was transferred into glass insert vials. The HPLC injection volume was 80 µL.
HPLC system consisted of Waters Alliance 2695, a model 2487 UV-Vis detector (Waters Associates, Milford, MA, USA). The maximum UV absorbance of rhodomyrtone was detected from 250 to 310 nm. Therefore, the detection wavelength was set at wavelength 302 nm. The chromatographic data were collected and analyzed using Millenium 32® software. Waters Bondapak C18 column, 5 μm, 4.6 mm × 150 mm, was used to set the standard for HPLC drug analytical measurement procedure. The mobile phase consisted of a mixture of acetonitrile and deionized water (80:20% v/v). The mobile phase was pre-filtered through a 0.20 μm filter and was delivered at a rate of 1 mL/min.
Male Sprague Dawley rats weighing 250–350 g were housed in separate stainless cages under a controlled environment (temperature at 22 ± 2 °C and relative humidity of 55 ± 10% with 12 h light and 12 h dark cycles) at the Southern Laboratory Animal Facility, Faculty of Science, Prince of Songkla University, Thailand. During the experimental period, they received a standard rodent diet with free access to ad libitum drinking water. Rats were divided into two groups, each consisting of 12 animals. Each group received a single oral dose of rhodomyrtone (dissolved in medium-chain triglyceride) at 50 mg/kg body weight (Group 1) and 100 mg/kg body weight (Group 2). The animals were fasted for 10 h prior to the experiment. An initial blood sample was taken by clipping the end of the animals’ tails. Blood samples (500 μL) were collected at time intervals of 0 (predose), 0.25, 0.5, 1, 2, 3, 4, 5, 6, 7 and 8 h. The samples were transferred to a heparinized microcentrifuge tube and centrifuged at 2500× g at 10 °C for 10 min. The plasma samples were stored at −80 °C until HPLC analysis.
The individual plasma concentration–time profiles were visually inspected to determine the maximum plasma concentration (Cmax), the minimum plasma concentration (Cmin) and the time to maximum plasma concentration (tmax). WinNonlin Version 1.1 (Scientific Consulting, Apex, NC, USA) was used to analyze the data and calculate for elimination half-life time (t1/2), elimination rate constant (λz), volume of distribution (Vz/F), area under the concentration–time curve between 0 and 8 h (AUC0–8) and the area under the concentration–time curve between 0 and infinity (AUC0–∞). The results were expressed as mean values ± standard deviation (SD).

[3] = Bench-top stability in plasma at 25 °C; type: in vitro ADME, rat; details: for Bench-top stability, Accuracy (%): n = 5
Description: The mean recovery was determined at low, medium and high concentrations from five replicates. The long-term storage stability at −80 °C was determined after 15, 30, 60 and 90 d. Bench-top stability testing was also conducted. […] The freeze–thaw cycles were stabilized. Rhodomyrtone was spiked in blank plasma, then stored in a freezer (−20 °C) and thawed every 24 h at room temperature (25 °C) for three cycles prior to extraction.

[4] = Freeze–thaw stability in plasma; type: in vitro ADME, rat; details: n = 5
Description: (§1) The mean recovery was determined at low, medium and high concentrations from five replicates. The long-term storage stability at −80 °C was determined after 15, 30, 60 and 90 d. Bench-top stability testing was also conducted. Samples were spiked in blank plasma and extracted, then analyzed in three replications at 25 °C for 0, 1, 2, 4, 6 and 8 h. The freeze–thaw cycles were stabilized. Rhodomyrtone was spiked in blank plasma, then stored in a freezer (−20 °C) and thawed every 24 h at room temperature (25 °C) for three cycles prior to extraction.

[5] = Long-term storage stability in plasma at −80 °C; type: in vitro ADME, rat; details: after 15, 30, 60 and 90 d
Description: as §1

[6] = tested on: Staphylococcus epidermidis ATCC 35984 (biofilm positive); set-up: method as in PMID 34067029; details: cited from earlier work
Bacillus cereus = tested on: Bacillus cereus; set-up: method as in PMID 34067029; details: cited from earlier work
Streptococcus mutans = tested on: Streptococcus mutans; set-up: method as in PMID 19303274; details: cited from earlier work
[7] = tested on: Staphylococcus aureus ATCC 29213; set-up: method as in PMID 23019189, PMID 34067029; details: cited from earlier work
[8] = tested on: Staphylococcus aureus clinical isolated; set-up: method as in PMID 30583020; details: cited from earlier work
MRSA clinical isolated = details: cited from earlier work
staphylococcal isolates = details: most staphylococcal isolates; no reference given; cited from earlier work
MRSA = details: cited from earlier work
[9] = set-up: method as in PMID 32793420; details: cited from earlier work
S. aureus or MRSA = tested on: S. aureus or MRSA; set-up: method as in PMID 23029218; details: 45 passages of stepwise isolation of S. aureus or MRSA on Luria-Bertani agar with rhodomyrtone; cited from earlier work
[10] = cited from earlier work
[11] = set-up: method as in PMID 26312207; details: humans; cited from earlier work
[12] = male, Sprague Dawley, plasma, rat, single oral dose 50 mg/kg, n = 12
[13] = male, Sprague-Dawley, plasma, rat, single oral dose 50 mg/kg, n = 12
[14] = male, Sprague-Dawley, plasma, rat, single oral dose 100 mg/kg, n = 12

## CC(=O)NC[C@H]1CN(c2ccc(N3CCOCC3)c(F)c2)C(=O)O1 [linezolid]
[1]; 50 mg/kg
  Cmax: 25000 ng/mL
[1]
  half-life: 1.1 h

## CC(C)CC(=O)c1c(O)cc2c(c1O)[C@@H](CC(C)C)C1=C(O2)C(C)(C)C(=O)C(C)(C)C1=O [rhodomyrtone, Rhodomyrtone]
[2]; male, Sprague Dawley, plasma, rat, oral, 50 to 100 mg/kg, read-out: terminal elimination phase half-life (t1/2) (converted)
  half-life: ~2.5 h
[2]; [12]
  CL/F: 266 mL/min/kg
  AUC(0-t): 2680 ± 1090 ng·h/mL
[2]; male, Sprague Dawley, plasma, rat, single oral dose 50 mg/kg, n = 12, read-out: t1/2 (converted)
  half-life: 2.2 ± 0.74 h
[2]; male, Sprague Dawley, plasma, rat, single oral dose 100 mg/kg, n = 12
  CL/F: 221 mL/min/kg
[2]; male, Sprague Dawley, plasma, rat, single oral dose 100 mg/kg, n = 12, read-out: t1/2 (converted)
  half-life: 2.53 ± 0.92 h
[2]; male, Sprague Dawley, rat, plasma, oral, estimated from SwissADME bioavailability score and AUC, no intravenous data
  bioavailability: ~10%
[2]; male, Sprague Dawley, rat, plasma, 50 mg/kg, rat, single oral dose 50 mg/kg, n = 12, mean ± SD, read-out: Tmax
  Tmax: 1.92 ± 0.29 h
[2]; male, Sprague Dawley, rat, plasma, 50 mg/kg, rat, single oral dose 50 mg/kg, n = 12, read-out: Vz/F
  Vd/F: 48.5 ± 16.9 L/kg
[2]; male, Sprague Dawley, rat, plasma, 100 mg/kg, rat, oral, 50 and 100 mg/kg doses (not significantly different), read-out: apparent total volume of distribution (Vz/F)
  Vd/F: ~50 L/kg
[2]; male, Sprague Dawley, rat, plasma, 100 mg/kg, rat, oral, both 50 and 100 mg/kg doses, read-out: time to maximum plasma concentration (Tmax)
  Tmax: 2 h
[2]; male, Sprague Dawley, rat, plasma, 100 mg/kg, rat, single oral dose 100 mg/kg, n = 12, mean ± SD, read-out: Tmax
  Tmax: 2 h
[2]; male, Sprague Dawley, rat, plasma, 100 mg/kg, rat, single oral dose 100 mg/kg, n = 12, read-out: Vz/F
  Vd/F: 46.6 ± 13.8 L/kg
[2]; male, Sprague Dawley, rat plasma, oral 50 mg/kg, 8 h
  concentration at 8 h: ~100 ng/mL
[2]; male, Sprague Dawley, rat plasma, single oral dose 50 mg/kg, n = 12
  Cmax: 570 ± 120 ng/mL
[2]; male, Sprague Dawley, rat plasma, single oral dose 100 mg/kg, n = 12
  Cmax: 1310 ± 200 ng/mL
[2]; [13]
  AUC(0-inf): 3410 ± 1040 ng·h/mL
  k el: 0.000139 s⁻¹
[2]; [14]
  AUC(0-inf): 7820 ± 1530 ng·h/mL
  AUC(0-t): 6650 ± 1130 ng·h/mL
  k el: 8.33e-05 s⁻¹
[2]; rat plasma, single oral dose 50 mg/kg, n = 12
  Cmin: 140 ± 60 ng/mL
[2]; rat plasma, single oral dose 100 mg/kg, n = 12
  Cmin: 310 ± 90 ng/mL
[2]; rat, oral 50 mg/kg
  time of rhodomyrtone concentrations above MIC (0.5–1 μg/mL) of most staphylococcal isolates: approximately 4 h
[2]; rat, oral 100 mg/kg
  Cmax relative to the MBCs for MRSA (0.03–1.00 μg/mL): 2–3 times
  time of rhodomyrtone concentrations above MIC (0.5–1 μg/mL) of most staphylococcal isolates: ~8 h
[2]; rat, oral, 8 h sampling time
  AUC0–8 as share of AUC0–∞: about 80%
[3]; 0 h, 0.1 µg/mL
  Bench-top stability, Accuracy (%): 108.10%
[3]; 0 h, 100 µg/mL
  Bench-top stability, Accuracy (%): 97.34%
[3]; 0 to 8 h, 0.1 and 100 µg/mL
  Bench-top stability, accuracy (range over all time points): 92–109%
[3]; 1 h, 0.1 µg/mL
  Bench-top stability, Accuracy (%): 93.38%
[3]; 1 h, 100 µg/mL
  Bench-top stability, Accuracy (%): 96.58%
[3]; 2 h, 0.1 µg/mL
  Bench-top stability, Accuracy (%): 108.61%
[3]; 2 h, 100 µg/mL
  Bench-top stability, Accuracy (%): 95.97%
[3]; 4 h, 0.1 µg/mL
  Bench-top stability, Accuracy (%): 101.47%
[3]; 4 h, 100 µg/mL
  Bench-top stability, Accuracy (%): 94.58%
[3]; 6 h, 0.1 µg/mL
  Bench-top stability, Accuracy (%): 101.24%
[3]; 8 h, 0.1 µg/mL
  Bench-top stability, Accuracy (%): 95.96%
[4]; Day 0, 0.1 µg/mL
  Freeze–thaw stability, Accuracy (%): 110.31%
[4]; Day 0, 100 µg/mL
  Freeze–thaw stability, Accuracy (%): 103.71%
[4]; Day 3 (three cycles −20 °C / 25 °C), 0.1 µg/mL
  Freeze–thaw stability, Accuracy (%): 105.93%
[4]; Day 3 (three cycles −20 °C / 25 °C), 100 µg/mL
  Freeze–thaw stability, Accuracy (%): 108.10%
[5]
  Long-term stability, accuracy: 94–114%
[6]
  MIC: 0.39 µg/mL (≈ 0.881 µM)
Bacillus cereus
  MIC: 0.39 µg/mL (≈ 0.881 µM)
Streptococcus mutans
  MIC: 0.19 µg/mL (≈ 0.429 µM)
[7]
  MIC: 0.5 µg/mL (≈ 1.13 µM)
[8]
  MIC: 0.5 to 2 µg/mL
MRSA clinical isolated
  MIC: 0.39 to 0.78 µg/mL
Staphylococcal isolates
  MIC: 0.5 to 1 µg/mL
MRSA
  MBCs: 0.03 to 1.00 µg/mL
[9]
  LD50: 2000 mg/kg
S. aureus or MRSA
  resistance development: not found to be resistant

## CN[C@H](CC(C)C)C(=O)N[C@H]1C(=O)N[C@@H](CC(N)=O)C(=O)N[C@H]2C(=O)N[C@H]3C(=O)N[C@H](C(=O)N[C@H](C(=O)O)c4cc(O)cc(O)c4-c4cc3ccc4O)[C@H](O)c3ccc(c(Cl)c3)Oc3cc2cc(c3O[C@@H]2O[C@H](CO)[C@@H](O)[C@H](O)[C@H]2O[C@H]2C[C@](C)(N)[C@H](O)[C@H](C)O2)Oc2ccc(cc2Cl)[C@H]1O [vancomycin]
[10]; intramuscular and intraperitoneal administration
  half-life: 0.6 h
[10]; rats
  oral bioavailability: below 0.5%
[11]
  oral bioavailability: < 10%
